Key:
melanoma cells = test: 51Cr release assay of SLC45A2-specific CD8 T cells against inhibitor-treated melanoma cells; format: cell-based, human; conditions: melanoma cells treated for 48 hours
Protocol: SLC45A2-specific CD8 T cells were assayed for specific lysis of SLC45A2-expressing or not expressing targets using standard 51Chromium (51Cr) release assay. Targets were labeled with 100 uCi of 51Cr for 2 hrs and after three times washing, the labeled targets plated triplicated well at a 2000 targets per well. Effector cells were incubated with targets as various effector:target (E:T) ratio. After 4 hours, 30 ul of supernatant was collected from each well and the 51Cr was measured by a gamma counter. The percentage of specific lysis was calculated.
(§1) Mel526 and A375 (BRAF V600E+) and MeWo (BRAF wild type) were treated with BRAF V600E inhibitor, dabrafenib (50 nM), or MEK inhibitor, Trametinib (50 nM) (GlaxoSmithKline) or both for 48 hours. Untreated melanomas were used as control.
Like other melanocyte differentiation proteins such as MART-1, gp100 and tyrosinase, the SLC45A2 gene is regulated by the MITF transcription factor (J Biol Chem, 2002, 277:402-406, Gen Soci Ame, 2008 178:761-769). MITF protein levels are suppressed by oncogenic BRAF through ERK-mediated phosphorylation and degradation (J Cell Biol, 2005, 170:703-708). […] Melanoma cells were treated with a specific inhibitor of BRAF V600E, dabrafenib (50 nM), or a MEK inhibitor, Trametinib (50 nM), or both for 48 hours and mRNA expression of SLC45A2 and MART-1 was analyzed by RT-PCR. […]

[1] = test system: mRNA expression of SLC45A2 and MART-1; test: RT-PCR of SLC45A2 and MART-1 mRNA after MAPK pathway inhibitor treatment; format: cell-based, human; conditions: 50 nM, 48 hours
Protocol: Real time PCR was done with primers of SLC45A2, MART-1, gp100, and tyrosinase using power syber green PCR master mix (Applied biosystems life technologies). Values were normalized by the amount of the gene encoding GAPDH.
as §1
Like other melanocyte differentiation proteins such as MART-1, gp100 and tyrosinase, the SLC45A2 gene is regulated by the MITF transcription factor (J Biol Chem, 2002, 277:402-406, Gen Soci Ame, 2008 178:761-769). MITF protein levels are suppressed by oncogenic BRAF through ERK-mediated phosphorylation and degradation (J Cell Biol, 2005, 170:703-708). Thus, it was next investigated whether BRAF or MEK inhibitors can modulate SLC45A2 expression. Melanoma cells were treated with a specific inhibitor of BRAF V600E, dabrafenib (50 nM), or a MEK inhibitor, Trametinib (50 nM), or both for 48 hours and mRNA expression of SLC45A2 and MART-1 was analyzed by RT-PCR. […] To assess the killing effect of SCL45A2-specific CD8 T cells against melanoma cells after treatment with BRAF and MEK inhibitors, a ^51Cr release assay was performed in melanoma cells treated with a BRAF inhibitor, a MEK inhibitor or both for 48 hours.

SMILES	cytotoxicity of SLC45A2-specific CD8 T cells against treated vs untreated melanoma cells (melanoma cells)	mRNA expression of SLC45A2 and MART-1 ([1]; MeWo cells (wild type BRAF))	mRNA expression of SLC45A2 and MART-1 ([1]; Mel526 cells (BRAF V600E))
CC(C)(C)c1nc(-c2cccc(NS(=O)(=O)c3c(F)cccc3F)c2F)c(-c2ccnc(N)n2)s1 [dabrafenib]	increased cytotoxicity	did not show an increased expression	significant increase
CC(=O)Nc1cccc(-n2c(=O)n(C3CC3)c(=O)c3c(Nc4ccc(I)cc4F)n(C)c(=O)c(C)c32)c1 [Trametinib]	increased cytotoxicity	–	–
